One data set concerns NCI-H358. Briefly: Antiproliferative activity against human NCI-H358 cells assessed as inhibition of cell proliferation incubated for 6 days by CCK8 assay. It counts as functional, cell-based.
In data set [1] the target is T1, GTPase KRas (Homo sapiens, UniProt P01116, G12C). Briefly: Inhibition of GDP-loaded His-tagged KRAS G12C mutant (2 to 182 residues) (unknown origin) assessed as inhibition of SOS1-catalyzed nucleotide exchange preincubated for 1 hr followed by SOS1 addition measured after 1 hr by TR-FRET assay. A general note: In TR-FRET formats the signal depends on donor and acceptor labels being close together.

Data set [2] has as its target T1, GTPase KRas. In words: Inhibition of KRAS G12C mutant in human NCI-H358 cells assessed as reduction in ERK phosphorylation incubated for 2 hrs by HTRF assay. It counts as cell-based.
Data set [3] can be described thus: Oral bioavailability in Beagle dog at 10 mg/kg measured up to 24 hrs by LC-MS analysis. It counts as ADME, organism-based, Canis lupus familiaris. Conditions: in vivo.

SMILES strings stand for the structures. pIC50: −log10 of the molar value. Several values for one entry are separate records, joined by “and”; a condition that tells them apart may be missing. Identical values can stand only once.

For the molecule `C=CC(=O)N1CCN(c2c(C#N)c(=O)n(-c3c(C(C)C)ncnc3C(C)C)c3nc(-c4c(N)c(Cl)cc(Cl)c4F)c(Cl)cc23)CC1`, the negative-log IC50 (pIC50) was 7.49 with NCI-H358 (Homo sapiens, NCI-H358, 144 h); 8.32 on GTPase KRas [1]; 7.73 on GTPase KRas [2].

With `C=CC(=O)N1CCN(c2c(C#N)c(=O)n(-c3c(C)ccnc3C(C)C)c3nc(-c4c(N)c(Cl)cc(Cl)c4F)c(Cl)cc23)C[C@@H]1CC#N`, the values for the negative-log IC50 (pIC50) at GTPase KRas [1] and at GTPase KRas [2] were 8.18 and 7.91, respectively.

As for `C=CC(=O)N1CCN(c2c(C#N)c(=O)n(-c3c(C)ccnc3C(C)C)c3nc(-c4c(N)c(Cl)cc(Cl)c4F)c(Cl)cc23)CC1`, the pIC50 in the data set on NCI-H358 (Homo sapiens, NCI-H358, 144 h) is 7.56; in the data set on NCI-H358 (nci-h358) it was 7.84; at GTPase KRas [1], 8.71 and 8.81; on GTPase KRas [2], 7.98 and 7.93. Besides, the F in data set [3] (10 mg/kg, 24 h) was 98.5% and 63.1%.

With `C=CC(=O)N1CCN(c2c(C#N)c(=O)n(-c3c(C(C)C)ncnc3C(C)C)c3nc(-c4c(N)cccc4F)c(Cl)cc23)CC1`, the negative-log IC50 (pIC50) at GTPase KRas [2] is 7.70.

In the case of `C=CC(=O)N1CCN(c2c(C#N)c(=O)n(-c3c(C)ccnc3C(C)C)c3nc(-c4c(N)c(Cl)cc(Cl)c4F)c(Cl)cc23)CC1CC#N` (centres undefined), the pIC50 was 7.45 in the data set on NCI-H358 (Homo sapiens, NCI-H358, 144 h); 8.29 on GTPase KRas [1]; 7.83 on GTPase KRas [2].

Regarding `C=CC(=O)N1CCN(c2c(C#N)c(=O)n(-c3c(C)ccnc3C(C)C)c3nc(-c4c(N)c(Cl)cc(Cl)c4F)c(Cl)cc23)C[C@H]1C`, the pIC50 in the data set on NCI-H358 (Homo sapiens, NCI-H358, 144 h) was 7.60; on GTPase KRas [1], 8.60; at GTPase KRas [2], 7.54. Moreover, the bioavailability in data set [3] (beagle) came out at 70.3%.

With `C=CC(=O)N1[C@H](C)CN(c2c(C#N)c(=O)n(-c3c(C)ccnc3C(C)C)c3nc(-c4c(N)c(Cl)cc(Cl)c4F)c(Cl)cc23)C[C@@H]1C`, the pIC50 is 7.76 with NCI-H358 (Homo sapiens, NCI-H358, 144 h); 8.55 at GTPase KRas [1]; 7.42 at GTPase KRas [2].

As to `C=CC(=O)N1CCN(c2c(C#N)c(=O)n(-c3c(C)ccnc3C(C)C)c3nc(-c4ccccc4F)c(Cl)cc23)CC1`, the negative-log IC50 (pIC50) in the data set with NCI-H358 (Homo sapiens, NCI-H358, 144 h) was 7.28; at GTPase KRas [1] it was 8.36; on GTPase KRas [2] it was 7.52.

What is called pIC50 is the negative decadic logarithm of the IC50, by convention in mol/L. The term bioavailability denotes dose-corrected exposure relative to a reference, in per cent. Read a low bioavailability as poor availability.

For the origin of these results see ChEMBL document CHEMBL4842392, “Targeting KRAS Mutant Protein Inhibitor for Potential Treatment in Cancer” (ACS Med Chem Lett, 2021).
